Tests used:
large (Lg) crabgrass = test: Test E preemergence; assay type: in vivo, Digitaria sanguinalis; details: for Crabgrass, Large plant response rating: scale 0 to 100 (0 no effect, 100 complete control); for Plant response rating, Crabgrass, Large: 125 g ai/ha, scale 0 to 100, 0 no effect, 100 complete control
In short: (§1)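 Compound in a non-phytotoxic solvent mixture with surfactant was applied preemergence to seeds in silt loam soil, or postemergence to plants 2 to 18 cm tall grown in peat-based potting medium. Plants were kept in a greenhouse for 14 to 21 days, then rated visually against untreated controls on a 0 (no effect) to 100 (complete control) scale.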

velvetleaf = test: Test E preemergence; assay type: in vivo, Abutilon theophrasti; details: for Velvetleaf plant response rating: scale 0 to 100 (0 no effect, 100 complete control); for Plant response rating, Velvetleaf: 125 g ai/ha, scale 0 to 100, 0 no effect, 100 complete control
In short: as §1

nightshade = test: Test E preemergence; assay type: in vivo, Solanum ptycanthum; details: for Nightshade plant response rating: scale 0 to 100 (0 no effect, 100 complete control); for Plant response rating, Nightshade: 125 g ai/ha, scale 0 to 100, 0 no effect, 100 complete control
In short: as §1

kochia = test: Test A preemergence; assay type: in vivo, Kochia scoparia; details: for Plant response rating, Kochia: 125 g ai/ha; for Kochia plant response rating: 500 g ai/ha
In short: (§2)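 Pre- and postemergence greenhouse screen. Soil: loam + sand. Spray carrier: solvent mixture, non-phytotoxic, with surfactant. Post timing at 1–2 leaves, height 2–10 cm. Readout: visual injury on a 0–100 scale roughly 10 days after application, untreated plants as reference.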

dayflower = test: Test E preemergence; assay type: in vivo, Commelina virginica; details: for Dayflower, VA plant response rating: scale 0 to 100 (0 no effect, 100 complete control); for Plant response rating, Dayflower, VA: 125 g ai/ha, scale 0 to 100, 0 no effect, 100 complete control
In short: as §1

morningglory = test: Test E preemergence; assay type: in vivo, Ipomoea coccinea; details: for Morningglory plant response rating: scale 0 to 100 (0 no effect, 100 complete control); for Plant response rating, Morningglory: 125 g ai/ha, scale 0 to 100, 0 no effect, 100 complete control
In short: as §1

blackgrass = test: Test A postemergence; assay type: in vivo, Alopecurus myosuroides; details: 0 to 100 scale where 0 is no effect and 100 is complete control
In short: as §2

barnyardgrass = test: Test E preemergence; assay type: in vivo, Echinochloa crus-galli; details: for Barnyardgrass plant response rating: scale 0 to 100 (0 no effect, 100 complete control); for Plant response rating, Barnyardgrass: scale 0 to 100, 0 no effect, 100 complete control
In short: as §1

fall panicum = test: Test E preemergence; assay type: in vivo, Panicum dichotomiflorum; details: for Panicum, Fall plant response rating: scale 0 to 100 (0 no effect, 100 complete control); for Plant response rating, Panicum, Fall: 125 g ai/ha, scale 0 to 100, 0 no effect, 100 complete control
In short: as §1

ragweed = test: Test E preemergence; assay type: in vivo, Ambrosia elatior; details: for Ragweed plant response rating: scale 0 to 100 (0 no effect, 100 complete control); for Plant response rating, Ragweed: 125 g ai/ha, scale 0 to 100, 0 no effect, 100 complete control
In short: as §1

galium = test: Test A postemergence; assay type: in vivo, Galium aparine; details: 0 to 100 scale where 0 is no effect and 100 is complete control
In short: as §2

palmer pigweed = test: Test E preemergence; assay type: in vivo, Amaranthus palmeri; details: for Pigweed, Palmer plant response rating: scale 0 to 100 (0 no effect, 100 complete control); for Plant response rating, Pigweed, Palmer: 125 g ai/ha, scale 0 to 100, 0 no effect, 100 complete control
In short: as §1

corn = test: Test E preemergence; assay type: in vivo, Zea mays; details: for Corn plant response rating: scale 0 to 100 (0 no effect, 100 complete control); for Plant response rating, Corn: 125 g ai/ha, scale 0 to 100, 0 no effect, 100 complete control
In short: as §1

soybean = test: Test E preemergence; assay type: in vivo, Glycine max; details: for Soybean plant response rating: scale 0 to 100 (0 no effect, 100 complete control); for Plant response rating, Soybean: 125 g ai/ha, scale 0 to 100, 0 no effect, 100 complete control
In short: as §1

[1] = 0 to 100 scale where 0 is no effect and 100 is complete control

N#Cc1cccc(Oc2ncc(Br)cn2)c1-n1cc(I)cn1 [Compound 88]
Crabgrass, Large plant response rating (large (Lg) crabgrass; 16 g ai/ha): 0
Crabgrass, Large plant response rating (large (Lg) crabgrass; 31 g ai/ha): 35
Crabgrass, Large plant response rating (large (Lg) crabgrass; 62 g ai/ha): 65
Plant response rating, Crabgrass, Large (large (Lg) crabgrass): 95
Velvetleaf plant response rating (velvetleaf; 16 g ai/ha): 0
Velvetleaf plant response rating (velvetleaf; 31 g ai/ha): 0
Velvetleaf plant response rating (velvetleaf; 62 g ai/ha): 20
Plant response rating, Velvetleaf (velvetleaf): 65
Nightshade plant response rating (nightshade; 31 g ai/ha): 0
Plant response rating, Nightshade (nightshade): 0
Plant response rating, Kochia (kochia; [1]): 100
Kochia plant response rating (kochia; 0 to 100 scale, 0 no effect, 100 complete control, approx. 10 days): 100
Dayflower, VA plant response rating (dayflower; 16 g ai/ha): 0
Dayflower, VA plant response rating (dayflower; 31 g ai/ha): 0
Dayflower, VA plant response rating (dayflower; 62 g ai/ha): 0
Plant response rating, Dayflower, VA (dayflower): 60
Morningglory plant response rating (morningglory; 16 g ai/ha): 0
Morningglory plant response rating (morningglory; 31 g ai/ha): 0
Morningglory plant response rating (morningglory; 62 g ai/ha): 10
Plant response rating, Morningglory (morningglory): 15
Plant response rating, Blackgrass (blackgrass; 125 g ai/ha): 70
Plant response rating, Blackgrass (blackgrass; 500 g ai/ha): 100
Barnyardgrass plant response rating (barnyardgrass; 16 g ai/ha, preemergence): 0
Barnyardgrass plant response rating (barnyardgrass; 31 g ai/ha, preemergence): 0
Plant response rating, Barnyardgrass (barnyardgrass; Preemergence, 62 g ai/ha): 0
Plant response rating, Barnyardgrass (barnyardgrass; preemergence, 125 g ai/ha): 0
Panicum, Fall plant response rating (fall panicum; 16 g ai/ha): 0
Panicum, Fall plant response rating (fall panicum; 31 g ai/ha): 0
Panicum, Fall plant response rating (fall panicum; 62 g ai/ha): 0
Plant response rating, Panicum, Fall (fall panicum): 10
Ragweed plant response rating (ragweed; 16 g ai/ha): 0
Ragweed plant response rating (ragweed; 31 g ai/ha): 0
Ragweed plant response rating (ragweed; 62 g ai/ha): 0
Plant response rating, Ragweed (ragweed): 65
Plant response rating, Galium (galium; 125 g ai/ha): 100
Plant response rating, Galium (galium; 500 g ai/ha): 100
Pigweed, Palmer plant response rating (palmer pigweed; 16 g ai/ha): 0
Pigweed, Palmer plant response rating (palmer pigweed; 31 g ai/ha): 0
Pigweed, Palmer plant response rating (palmer pigweed; 62 g ai/ha): 0
Plant response rating, Pigweed, Palmer (palmer pigweed): 75
Corn plant response rating (corn; 16 g ai/ha): 0
Corn plant response rating (corn; 31 g ai/ha): 0
Corn plant response rating (corn; 62 g ai/ha): 35
Plant response rating, Corn (corn): 35
Soybean plant response rating (soybean; 16 g ai/ha): 35
Soybean plant response rating (soybean; 31 g ai/ha): 0
Soybean plant response rating (soybean; 62 g ai/ha): 20
Plant response rating, Soybean (soybean): 20

FC(F)(F)COc1cnn(-c2ccccc2Oc2ncc(Cl)cn2)c1 [Compound 138, 5-chloro-2-[2-[4-(2,2,2-trifluoroethoxy)-1H-pyrazol-1-yl]phenoxy]pyrimidine]
Crabgrass, Large plant response rating (large (Lg) crabgrass; 16 g ai/ha): 0
Crabgrass, Large plant response rating (large (Lg) crabgrass; 31 g ai/ha): 70
Crabgrass, Large plant response rating (large (Lg) crabgrass; 62 g ai/ha): 98
Plant response rating, Crabgrass, Large (large (Lg) crabgrass): 100
Velvetleaf plant response rating (velvetleaf; 16 g ai/ha): 40
Velvetleaf plant response rating (velvetleaf; 31 g ai/ha): 70
Velvetleaf plant response rating (velvetleaf; 62 g ai/ha): 90
Plant response rating, Velvetleaf (velvetleaf): 100
Nightshade plant response rating (nightshade; 16 g ai/ha): 0
Nightshade plant response rating (nightshade; 31 g ai/ha): 0
Nightshade plant response rating (nightshade; 62 g ai/ha): 98
Plant response rating, Nightshade (nightshade): 90
Plant response rating, Kochia (kochia; [1]): 90
Kochia plant response rating (kochia; [1]): 100
Dayflower, VA plant response rating (dayflower; 16 g ai/ha): 0
Dayflower, VA plant response rating (dayflower; 31 g ai/ha): 5
Dayflower, VA plant response rating (dayflower; 62 g ai/ha): 30
Plant response rating, Dayflower, VA (dayflower): 40
Morningglory plant response rating (morningglory; 16 g ai/ha): 0
Morningglory plant response rating (morningglory; 31 g ai/ha): 0
Morningglory plant response rating (morningglory; 62 g ai/ha): 0
Plant response rating, Morningglory (morningglory): 40
Blackgrass plant response rating (blackgrass; 125 g ai/ha): 50
Plant response rating, Blackgrass (blackgrass; 500 g ai/ha): 90
Barnyardgrass plant response rating (barnyardgrass; 16 g ai/ha, preemergence): 0
Barnyardgrass plant response rating (barnyardgrass; 31 g ai/ha, preemergence): 0
Barnyardgrass plant response rating (barnyardgrass; 62 g ai/ha, preemergence): 15
Plant response rating, Barnyardgrass (barnyardgrass; preemergence, 125 g ai/ha): 60
Panicum, Fall plant response rating (fall panicum; 16 g ai/ha): 0
Panicum, Fall plant response rating (fall panicum; 31 g ai/ha): 25
Panicum, Fall plant response rating (fall panicum; 62 g ai/ha): 100
Plant response rating, Panicum, Fall (fall panicum): 100
Ragweed plant response rating (ragweed; 16 g ai/ha): 0
Ragweed plant response rating (ragweed; 31 g ai/ha): 0
Ragweed plant response rating (ragweed; 62 g ai/ha): 0
Plant response rating, Ragweed (ragweed): 0
Galium plant response rating (galium; 125 g ai/ha): 90
Plant response rating, Galium (galium; 500 g ai/ha): 100
Pigweed, Palmer plant response rating (palmer pigweed; 16 g ai/ha): 0
Pigweed, Palmer plant response rating (palmer pigweed; 31 g ai/ha): 70
Pigweed, Palmer plant response rating (palmer pigweed; 62 g ai/ha): 75
Plant response rating, Pigweed, Palmer (palmer pigweed): 70
Corn plant response rating (corn; 16 g ai/ha): 0
Corn plant response rating (corn; 31 g ai/ha): 0
Corn plant response rating (corn; 62 g ai/ha): 15
Plant response rating, Corn (corn): 35
Soybean plant response rating (soybean; 16 g ai/ha): 0
Soybean plant response rating (soybean; 31 g ai/ha): 0
Plant response rating, Soybean (soybean): 35
